Laboratory results as given in patent US8148388B2, “2,4 (4,6) pyrimidine derivatives” (Janssen Pharmaceutica, N.V., priority 2004, dated 2012).
Read-outs that look alike come from different tables or passages of the source.

Tests used:
Abl (h) = Abl (h) (Homo sapiens, UniProt P00519); test: Abl human kinase assay (glass-fiber filter); assay type: biochemical; details: test concentration of 10^−6M; read-out: C1 score (inhibition of Abl human)
cSRC (h) = cSRC (h) (Homo sapiens, UniProt P12931); test: cSRC human kinase assay (glass-fiber filter); assay type: biochemical; details: test concentration of 10^−6M; read-out: C3 score (inhibition of cSRC human)
Procedure, shortened: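 Radiometric assay: kinase and substrate are incubated with [33P]ATP, with the reaction started by MgATP mix. The reaction is spotted on P30 filtermat, washed in 75 mM phosphoric acid and methanol, and the bound 33P is measured by scintillation counting.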

Fes (h) = Fes (h) (Homo sapiens, UniProt P07332); test: Fes human kinase assay (glass-fiber filter); assay type: biochemical; details: test concentration of 10^−6M; read-out: C4 score (inhibition of Fes human)
Procedure, shortened: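 Human Fes (5–10 mU) was incubated with 0.1 mg/ml poly(Glu,Tyr) 4:1 in 8 mM MOPS pH 7.0, 0.2 mM EDTA, 10 mM Mg acetate and [γ-33P]ATP for 40 min at room temperature. The reaction was stopped with phosphoric acid, and substrate phosphorylation was quantified by filter binding and scintillation counting.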

Flt3 (h) = Flt3 (h) (Homo sapiens, UniProt P36888); test: Flt3 human kinase assay (glass-fiber filter); assay type: biochemical; details: test concentration of 10^−6M; read-out: C6 score (inhibition of Flt3 human)
Procedure, shortened: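 Human Flt3 (5-10 mU) with 50 μM peptide substrate in 8 mM MOPS pH 7.0, 0.2 mM EDTA, 10 mM Mg acetate and [γ-33P]ATP (concentration as required), 40 min at room temperature. Reaction stopped with phosphoric acid; substrate 33P incorporation counted on P30 glass-fiber filter.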

Fms (h) = Fms (h) (Homo sapiens, UniProt P07333); test: Fms human kinase assay (glass-fiber filter); assay type: biochemical; details: test concentration of 10^−6M; read-out: C7 score (inhibition of Fms human)
Procedure, shortened: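 Radiometric filter-binding assay: Fms (5-10 mU) with 250 μM peptide substrate and [γ-33P]ATP in 8 mM MOPS pH 7.0, 10 mM Mg acetate, 40 min at room temperature. Reaction stopped with phosphoric acid; substrate-bound 33P counted on P30 filtermat.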

Lck (h) = Lck (h) (Homo sapiens, UniProt P06239); test: Lck human kinase assay (glass-fiber filter); assay type: biochemical; details: test concentration of 10^−6M; read-out: C9 score (inhibition of Lck human)
Procedure, shortened: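 Kinase activity measured as transfer of (^33P) from radiolabeled MgATP to substrate, captured on P30 glass-fiber filtermat, washed in 75 mM phosphoric acid and methanol, then scintillation counted.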

Lyn (h) = Lyn (h) (Homo sapiens, UniProt P07948); test: Lyn human kinase assay (glass-fiber filter); assay type: biochemical; details: test concentration of 10^−6M; read-out: C10 score (inhibition of Lyn human)
Procedure, shortened: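 Human Lyn (5-10 mU) phosphorylating poly(Glu,Tyr) 4:1 at 0.1 mg/ml with [γ-33P]ATP (concentration as required) in 50 mM Tris pH 7.5, 10 mM Mg acetate, 40 min at room temperature. Stopped with phosphoric acid; substrate-bound radioactivity counted on glass-fibre filter.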

Yes (h) = Yes (h) (Homo sapiens, UniProt P07947); test: Yes human kinase assay (glass-fiber filter); assay type: biochemical; details: test concentration of 10^−6M; read-out: C11 score (inhibition of Yes human)
Procedure, shortened: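 Yes (h) (5-10 mU) with 0.1 mg/ml poly(Glu, Tyr) 4:1 in 8 mM MOPS pH 7.0, 0.2 mM EDTA, 10 mM MgAcetate and [γ-^33P-ATP], 40 minutes at room temperature. Stopped with phosphoric acid; substrate-bound ^33P counted on glass-fiber filter by scintillation.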

EGFR (h) = EGFR (h) (Homo sapiens, UniProt P00533); test: EGFR human kinase assay (glass-fiber filter); assay type: biochemical; details: test concentration of 10^−6M; read-out: C4 score (inhibition of EGFR human)
Procedure, shortened: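 Human EGFR (5-10 mU) phosphorylated 0.1 mg/ml poly(Glu, Tyr) 4:1 in 8 mM MOPS pH 7.0, 0.2 mM EDTA, 10 mM MnCl2, 10 mM MgAcetate with [γ-33P]ATP at unspecified concentration. Incubation lasted 40 minutes at room temperature, was stopped with phosphoric acid, and filter-bound 33P was counted by scintillation.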

[1] = not given; remark: listed apart in the source
EGFR-kinase domain = target: T1, EGFR-kinase domain (Homo sapiens, UniProt P00533); test: In vitro inhibition of EGFR (Flash Plate assay); assay type: biochemical; details: full dose response 1.10^−6M to 1.10^−10M, read-out: C12 EGFR flash Score
T1 construct: 0.5 μg EGFR-kinase domain/well
Experimental: The in vitro inhibition of EGFR was assessed using either the Flash Plate technology or the glass-fiber filter technology as described by Davies, S. P. et al., Biochem J. (2000), 351; p. 95-105. The Flash Plate technology is generally described by B. A. Brown et al. in High Throughput Screening (1997), p. 317-328. Editor(s): Devlin, John P. Publisher: Dekker, New York, N.Y.
In the Flash Plate EGFR kinase reaction assay, a kinase substrate consisting of biotinylated poly(L-glutamic acid-L-tyrosine) (poly(GT)biotin), is incubated with the aforementioned protein in the presence of (^33P) radiolabeled ATP. (^33P) phosphorylation of the substrate is subsequently measured as light energy emitted using a streptavidin-coated Flash Plate (PerkinElmer Life Sciences) by trapping and quantifying the binding of the biotin tagged and radiolabeled substrate.
The EGFR kinase reaction is performed at 30° C. for 60 minutes in a 96-well microtiter FlashPlate (PerkinElmer Life Sciences). For each of the tested compounds a full dose response 1.10^−6M to 1.10^−10M has been performed. IRESSA® and Tarceva™ (erlotinib) were used as reference compounds. The 100 μl reaction volume contains 54.5 mM TrisHCl pH 8.0, 10 mM MgCl2, 100 μM Na3VO4, 5.0 μM unlabeled ATP, 1 mM DTT, 0.009% BSA, 0.8 μCi AT^33P, 0.35 μg/well poly(GT)biotin and 0.5 μg EGFR-kinase domain/well.
The reaction is stopped by aspirating the reaction mixture and washing the plate 3× with 200 μl wash/stop buffer (PBS+100 mM EDTA). After the final wash step 200 μl of wash/stop buffer was added to each well and the amount of phosphorylated (^33P) Poly(GT)biotin determined by counting (30 sec/well) in a microtiterplate scintillation counter.

ErbB2 (h) = ErbB2 (h) (Homo sapiens, UniProt P04626); test: ErbB2 human kinase assay (filter); assay type: biochemical; details: read-out: C13 ERBB 2 Filter Score
Experimental: (§1) Similarly to the above the in vitro inhibition of two other kinases, i.e. human ErbB2 and human ErbB4 was tested for some of the compounds according to the invention.
(§2) In a final reaction volume of 25 μl, ErbB2 (h) (5-10 mU) is incubated with 8 mM MOPS pH 7.0, 0.2 mM EDTA, 10 mM MnCl2, 0.1 mg/ml poly(Glu, Tyr) 4:1, 10 mM MgAcetate and [γ-33P-ATP] (specific activity approx. 500 cpm/pmol, concentration as required). The reaction is initiated by the addition of the MgATP mix. After incubation for 40 minutes at room temperature, the reaction is stopped by the addition of 5 μl of a 3% phosphoric acid solution. 10 μl of the reaction is then spotted onto a Filtermat A and washed three times for 5 minutes in 75 mM phosphoric acid and once in methanol prior to drying and scintillation counting.

ErbB4 (h) = ErbB4 (h) (Homo sapiens, UniProt Q15303); test: ErbB4 human kinase assay (filter); assay type: biochemical; details: read-out: C14 ERBB 4 Filter Score
Experimental: as §1
as §2, with “ErbB4” for “ErbB2”

Chain of ErbB2 (h) (P04626 23-1255): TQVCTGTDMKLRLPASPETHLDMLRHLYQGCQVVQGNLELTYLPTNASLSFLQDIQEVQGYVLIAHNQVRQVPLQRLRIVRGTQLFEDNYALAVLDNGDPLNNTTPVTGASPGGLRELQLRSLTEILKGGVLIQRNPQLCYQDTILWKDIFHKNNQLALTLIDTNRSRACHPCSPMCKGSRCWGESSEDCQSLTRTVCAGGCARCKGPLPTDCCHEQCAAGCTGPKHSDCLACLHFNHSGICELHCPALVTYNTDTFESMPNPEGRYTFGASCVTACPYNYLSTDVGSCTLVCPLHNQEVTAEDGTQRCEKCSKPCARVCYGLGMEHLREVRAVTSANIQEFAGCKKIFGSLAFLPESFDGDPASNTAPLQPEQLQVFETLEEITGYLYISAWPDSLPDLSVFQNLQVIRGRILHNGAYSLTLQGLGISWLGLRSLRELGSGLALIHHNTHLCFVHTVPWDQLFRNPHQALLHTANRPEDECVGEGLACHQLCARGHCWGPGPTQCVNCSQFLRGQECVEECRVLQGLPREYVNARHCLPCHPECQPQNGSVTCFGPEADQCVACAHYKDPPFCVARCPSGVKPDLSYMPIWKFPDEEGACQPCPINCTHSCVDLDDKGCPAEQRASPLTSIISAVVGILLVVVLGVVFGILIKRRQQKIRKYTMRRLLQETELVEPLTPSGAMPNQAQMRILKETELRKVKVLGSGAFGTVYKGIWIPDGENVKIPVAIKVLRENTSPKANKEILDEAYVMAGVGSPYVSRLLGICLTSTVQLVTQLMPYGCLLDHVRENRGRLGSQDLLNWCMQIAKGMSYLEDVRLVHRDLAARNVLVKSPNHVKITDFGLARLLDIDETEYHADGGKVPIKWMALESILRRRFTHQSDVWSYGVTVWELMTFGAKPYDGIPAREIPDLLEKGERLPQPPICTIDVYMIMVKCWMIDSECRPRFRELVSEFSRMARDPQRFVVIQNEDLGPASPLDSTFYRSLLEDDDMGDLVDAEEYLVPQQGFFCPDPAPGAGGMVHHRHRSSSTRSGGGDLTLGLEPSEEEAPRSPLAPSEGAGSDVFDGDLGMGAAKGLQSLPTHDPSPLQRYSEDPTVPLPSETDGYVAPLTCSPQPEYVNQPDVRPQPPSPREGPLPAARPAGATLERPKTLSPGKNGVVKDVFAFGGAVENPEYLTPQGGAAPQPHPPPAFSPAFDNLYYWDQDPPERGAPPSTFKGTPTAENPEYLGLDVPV
T1 sequence (P00533 712-979 limits assumed): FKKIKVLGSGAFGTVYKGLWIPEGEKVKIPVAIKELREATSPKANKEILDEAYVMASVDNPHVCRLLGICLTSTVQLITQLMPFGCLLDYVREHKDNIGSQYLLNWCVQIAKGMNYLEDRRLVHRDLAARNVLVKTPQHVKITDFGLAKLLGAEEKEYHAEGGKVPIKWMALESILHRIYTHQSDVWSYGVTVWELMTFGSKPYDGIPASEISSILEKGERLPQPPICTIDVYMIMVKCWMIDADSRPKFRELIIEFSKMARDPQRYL
Chain of ErbB4 (h) (Q15303 26-1308): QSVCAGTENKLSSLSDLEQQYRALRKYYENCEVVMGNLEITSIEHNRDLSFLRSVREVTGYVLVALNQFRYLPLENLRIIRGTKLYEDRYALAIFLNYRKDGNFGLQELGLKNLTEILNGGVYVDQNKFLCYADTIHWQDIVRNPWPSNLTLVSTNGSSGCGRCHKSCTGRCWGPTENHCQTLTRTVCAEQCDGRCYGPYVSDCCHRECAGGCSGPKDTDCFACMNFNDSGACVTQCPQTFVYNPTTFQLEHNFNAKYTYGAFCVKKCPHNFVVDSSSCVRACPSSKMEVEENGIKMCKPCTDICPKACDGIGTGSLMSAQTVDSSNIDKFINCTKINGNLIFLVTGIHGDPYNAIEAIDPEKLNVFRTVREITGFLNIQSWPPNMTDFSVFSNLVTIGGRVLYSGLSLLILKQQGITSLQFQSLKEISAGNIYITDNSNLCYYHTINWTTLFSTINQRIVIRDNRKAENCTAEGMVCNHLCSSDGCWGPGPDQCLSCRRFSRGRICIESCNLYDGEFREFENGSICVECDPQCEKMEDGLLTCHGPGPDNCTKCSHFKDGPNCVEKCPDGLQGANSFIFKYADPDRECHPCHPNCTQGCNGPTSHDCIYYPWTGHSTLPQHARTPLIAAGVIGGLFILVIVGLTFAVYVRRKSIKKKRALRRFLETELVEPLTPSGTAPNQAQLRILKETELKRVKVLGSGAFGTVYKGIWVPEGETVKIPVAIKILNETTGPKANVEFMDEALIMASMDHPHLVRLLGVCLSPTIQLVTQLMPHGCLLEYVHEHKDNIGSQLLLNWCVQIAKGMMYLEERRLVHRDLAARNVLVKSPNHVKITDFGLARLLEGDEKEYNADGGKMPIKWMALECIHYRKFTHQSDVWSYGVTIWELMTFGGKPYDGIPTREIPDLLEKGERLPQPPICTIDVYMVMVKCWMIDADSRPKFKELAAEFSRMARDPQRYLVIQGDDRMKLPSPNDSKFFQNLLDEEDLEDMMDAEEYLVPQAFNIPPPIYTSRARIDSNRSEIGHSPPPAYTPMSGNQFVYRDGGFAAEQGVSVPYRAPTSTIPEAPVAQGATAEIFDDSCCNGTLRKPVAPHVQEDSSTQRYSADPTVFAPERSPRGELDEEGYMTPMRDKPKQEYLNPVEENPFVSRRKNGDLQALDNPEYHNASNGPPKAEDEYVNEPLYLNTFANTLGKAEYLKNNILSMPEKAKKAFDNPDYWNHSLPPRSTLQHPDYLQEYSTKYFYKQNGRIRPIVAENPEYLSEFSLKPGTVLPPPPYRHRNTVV
Chain of Lck (h) (P06239 whole entry): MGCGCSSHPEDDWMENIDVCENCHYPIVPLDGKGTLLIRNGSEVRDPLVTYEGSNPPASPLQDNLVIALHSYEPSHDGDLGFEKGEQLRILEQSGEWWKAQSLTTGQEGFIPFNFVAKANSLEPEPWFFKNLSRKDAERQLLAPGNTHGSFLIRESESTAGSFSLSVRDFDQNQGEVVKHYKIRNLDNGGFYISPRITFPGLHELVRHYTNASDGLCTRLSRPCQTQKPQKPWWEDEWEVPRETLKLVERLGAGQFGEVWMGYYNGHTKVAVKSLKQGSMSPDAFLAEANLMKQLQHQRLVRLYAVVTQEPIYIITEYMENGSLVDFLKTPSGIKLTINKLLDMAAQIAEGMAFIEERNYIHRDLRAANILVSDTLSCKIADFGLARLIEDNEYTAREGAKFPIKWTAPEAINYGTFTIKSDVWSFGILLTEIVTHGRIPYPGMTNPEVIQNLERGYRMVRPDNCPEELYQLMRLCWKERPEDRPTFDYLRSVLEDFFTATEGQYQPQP
Chain of Lyn (h) (P07948 whole entry): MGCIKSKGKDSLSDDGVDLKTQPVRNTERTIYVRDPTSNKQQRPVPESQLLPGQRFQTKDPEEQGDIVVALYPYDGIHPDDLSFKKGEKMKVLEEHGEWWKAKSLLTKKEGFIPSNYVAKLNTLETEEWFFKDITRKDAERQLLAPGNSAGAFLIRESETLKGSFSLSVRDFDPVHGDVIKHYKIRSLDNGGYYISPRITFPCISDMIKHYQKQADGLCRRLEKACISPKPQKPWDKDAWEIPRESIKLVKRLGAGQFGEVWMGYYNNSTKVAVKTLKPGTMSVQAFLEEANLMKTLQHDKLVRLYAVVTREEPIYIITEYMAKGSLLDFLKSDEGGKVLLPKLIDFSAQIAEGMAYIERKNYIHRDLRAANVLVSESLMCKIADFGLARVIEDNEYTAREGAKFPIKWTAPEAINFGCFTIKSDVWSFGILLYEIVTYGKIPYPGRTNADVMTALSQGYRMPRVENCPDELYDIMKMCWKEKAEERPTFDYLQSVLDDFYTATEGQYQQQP
Chain of Flt3 (h) (P36888 27-993): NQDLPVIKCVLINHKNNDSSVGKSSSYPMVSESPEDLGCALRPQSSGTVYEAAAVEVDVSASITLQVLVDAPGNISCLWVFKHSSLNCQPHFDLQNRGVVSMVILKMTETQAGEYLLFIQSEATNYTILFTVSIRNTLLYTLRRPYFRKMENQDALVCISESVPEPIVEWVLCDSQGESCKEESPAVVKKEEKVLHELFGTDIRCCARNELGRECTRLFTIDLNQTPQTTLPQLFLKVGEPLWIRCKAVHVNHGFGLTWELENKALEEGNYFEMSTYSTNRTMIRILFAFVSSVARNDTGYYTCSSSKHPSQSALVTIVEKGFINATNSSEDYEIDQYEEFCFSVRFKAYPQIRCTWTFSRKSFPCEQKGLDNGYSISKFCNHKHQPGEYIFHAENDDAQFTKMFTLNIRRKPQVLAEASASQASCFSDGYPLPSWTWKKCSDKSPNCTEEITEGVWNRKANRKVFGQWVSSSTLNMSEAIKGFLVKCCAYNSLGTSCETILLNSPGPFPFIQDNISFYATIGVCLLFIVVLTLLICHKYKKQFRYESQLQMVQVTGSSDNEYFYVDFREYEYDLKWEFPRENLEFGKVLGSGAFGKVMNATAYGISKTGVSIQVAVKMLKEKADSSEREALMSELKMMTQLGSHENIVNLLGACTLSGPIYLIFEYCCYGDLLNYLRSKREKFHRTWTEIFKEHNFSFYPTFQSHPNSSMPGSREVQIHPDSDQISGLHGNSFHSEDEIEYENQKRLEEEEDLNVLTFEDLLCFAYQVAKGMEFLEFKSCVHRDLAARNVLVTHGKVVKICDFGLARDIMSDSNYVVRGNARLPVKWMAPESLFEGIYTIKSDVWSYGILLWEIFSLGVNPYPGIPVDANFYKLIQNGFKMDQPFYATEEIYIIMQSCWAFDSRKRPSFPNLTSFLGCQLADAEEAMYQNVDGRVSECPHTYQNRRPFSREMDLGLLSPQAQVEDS

IC50 (EGFR-kinase domain) [µM] | IC50 (ErbB2 (h)) [µM] | IC50 (ErbB4 (h)) [µM] | Compound | other results
 |  |  | COCCOc1ccc2cc1OCCCCCN(C)Cc1cc(F)c(Cl)cc1Nc1cc(ncn1)N2 | ring closure, yield of all isomers (from COCCOc1ccc(Nc2cc(Nc3cc(Cl)c(F)cc3CN(C)CCCCCO)ncn2)cc1O, ether bond, 1,1'-(azodicarbonyl)dipiperidine (ADDP)/tributylphosphine, THF, 28.6 mM, 25.0 °C, 64.0 h): 44%
 |  |  | COc1ccc2cc1OCCNC(=O)C(Cc1ccccc1)NCc1cccc(c1)Nc1cc(ncn1)N2 (centres unmarked) | ring closure, yield of all isomers (from COc1ccc(Nc2cc(Nc3cccc(CNC(Cc4ccccc4)C(=O)O)c3)ncn2)cc1OCCN, amide bond, HBTU, DMF, 3.85 mM, 1.0 h): 14%
 |  |  | O=C1COc2cccc(c2)Nc2nccc(n2)Nc2cccc(c2)OCCCCN1 [Compound 4, 14,22-dioxa-2,4,8,19,29-pentaazatetracyclo[21.3.1.1˜3,7˜.1˜9,13˜]nonacosa-1(27),3,5,7(29),9,11,13(28),23,25-nonaen-20-one] | ring closure, yield of all isomers (from NCCCCOc1cccc(Nc2ccnc(Nc3cccc(OCC(=O)O)c3)n2)c1, amide bond, HBTU, DMF, 7.67 mM, 25.0 °C, 2.0 h): 9%; inhibition at 1 µM (Abl (h)): 10 to 30%; inhibition at 1 µM (cSRC (h)): 30 to 60%; inhibition at 1 µM (Fes (h)): 30 to 60%; inhibition at 1 µM (Flt3 (h)): > 80%; inhibition at 1 µM (Fms (h)): 60 to 80%; inhibition at 1 µM (Lck (h)): 30 to 60%; inhibition at 1 µM (Lyn (h)): 10 to 30%; inhibition at 1 µM (Yes (h)): 30 to 60%
 |  |  | N#Cc1cnc2nc1Nc1cccc(c1)C(=O)NCC(=O)NCc1cccc(c1)N2 [Compound 5, 2,4,8,15,18,26-hexaazatetracyclo[18.3.1.1˜3,7˜.1˜9,13˜]hexacosa-1(24),3,5,7(26),9,11,13(25),20,22-nonaene-6-carbonitrile, 14,17-dioxo-] | ring closure, yield of all isomers (from N#Cc1cnc(Nc2cccc(CNC(=O)CN)c2)nc1Nc1cccc(C(=O)O)c1, amide bond, HBTU, DMF, 22.5 mM, 25.0 °C, 3.0 h): 14%; inhibition at 1 µM (Flt3 (h)): 10 to 30%
 |  |  | COc1ccc2cc1OCCCNCCOc1ccc(Cl)cc1Nc1cc(ncn1)N2 [Compound 13, 1H,7H-6,2:8,12-dimetheno-13,20,1,3,5,7,17-benzodioxapentaazacyclodocosine, 23-chloro-14,15,16,17,18,19-hexahydro-11-methoxy-] | inhibition at 1 µM (Abl (h)): 10 to 30%; inhibition at 1 µM (cSRC (h)): 10 to 30%; inhibition at 1 µM (EGFR (h)): > 80%; inhibition at 1 µM (Lck (h)): 30 to 60%; inhibition at 1 µM (Lyn (h)): > 80%; inhibition at 1 µM (Yes (h)): > 80%; melting point [1]: > 260 °C
< 1 | 1 to 10 | < 1 | CC(C)CC1NC(=O)CN(C)Cc2cccc(c2)Nc2cc(ncn2)Nc2cccc(c2)CNC1=O (centres unmarked) [Compound 149] | 
< 1 | < 1 | < 1 | C#CCC1NC(=O)CN(C)Cc2cccc(c2)Nc2cc(ncn2)Nc2cccc(c2)CNC1=O (centres unmarked) [Compound 150] | 
< 1 | < 1 | < 1 | CN1CC(=O)N2CCC2C(=O)NCc2cccc(c2)Nc2cc(ncn2)Nc2cccc(c2)C1 (centres unmarked) [Compound 151] | 
< 1 | < 1 | < 1 | CN1CC(=O)NC(CCc2ccccc2)C(=O)NCc2cccc(c2)Nc2cc(ncn2)Nc2cccc(c2)C1 (centres unmarked) [Compound 152] | 
< 1 | 1 to 10 | < 1 | CCN1CCNC(=O)C(Cc2ccc(C(F)(F)F)cc2)NC(=O)CN(C)Cc2cccc(c2)Nc2cc(ncn2)Nc2cccc(c2)C1 (centres unmarked) [Compound 156] | 
< 1 | 1 to 10 | 1 to 10 | O=C1COc2cccc(c2)Nc2cc(ncn2)Nc2cccc(c2)CCN1 [Compound 160] | 
< 1 | 1 to 10 | < 1 | CCN1CCNC(=O)COc2cccc(c2)Nc2cc(ncn2)Nc2cccc(c2)C1 [Compound 161] | 
< 1 | 1 to 10 | 1 to 10 | COc1ccc2cc1OCCNC(=O)COc1cccc(c1)Nc1cc(ncn1)N2 [Compound 162] | 
